These results are taken from US12213501B2, “Methods for modifying high intensity sweetener glycosides” (Optibiotix Limited, priority 2018, dated 2025).

One experiment has as its system trained sensory panel. The experiment can be described thus: Sensory profiling (QDA) of sweetener samples by trained sensory panel. The format is in vivo, human. The note with it: for Sweet Taste Intensity: Table 3, concentration printed 0.032 g/L (steviol glycosides samples) or 0.024 g/L (others); for ES (equivalent sucrose concentration): from mean sweetness rating via Sweetness=15.5 (sucrose)-22.5; for ES (equivalent sucrose concentration) / Potency: concentration 0.032 or 0.024 g/L; for Bitter Taste / Cardboard/Stale Flavour / Cooked sugar flavour / Cooling Sensation / Crusty Bread Flavour / Liquorice Flavour / Metallic / Overall Strength of Off Taste/Flavour / Perfume Flavour / Salty Taste / Sour Taste / Sweet Taste / Bitter Aftertaste / Cooling Aftereffect / Liquorice Aftereffect / Sweet Aftertaste: mean rating, line scale 0-100, Stevia samples 0.32 g/L, Reb and Mogroside samples 0.24 g/L water; for Bitter Aftertaste / Cooling Aftereffect / Liquorice Aftereffect / Sweet Aftertaste: scored after 30 second delay; for Potency: sweet potency relative to sucrose; for liquorice flavour compared between sweeteners: unmodified sweeteners; for Mean Rating (0-100): sweetness as agreed by the panel.

Experiment [1] in a line: Initial tasting against sucrose standards. The format is in vivo. The note with it: all samples at 0.32 g/L, compared with Steviol glycosides. As for the experimental part: For the initial tasting sucrose standards were prepared at 4, 6, 8 and 10% (w/v) sucrose. Aiming for 8% sucrose equivalence all HIS and enzyme modified samples were also prepared at 0.32 g/L. From the initial tasting it had been concluded that the sucrose standard range needed to be reduced to 2, 4, 6 and 8% as the 10% sample was too extreme.

For experiment [2] the following is noted: reported; cited from earlier work.
Experiment [3] is described as follows: Reported bitterness of steviol glycosides and sucrose equivalence (literature). The class given is in vivo, human. The text has this: Often sweeteners are compared to sucrose at 8% sucrose equivalent (Prakash, G. E. DuBois, J. F. Clos, K. L. Wilkens, L. E. Fosdick. (2008). Development of rebiana, a natural, non-caloric sweetener. Food and Chemical Toxicology. Volume 46, Issue 7, Pages S75-S82. Previous literature (Caroline Hellfritsch, Anne Brockhoff, Frauke Stähler, Wolfgang Meyerhof, and Thomas Hofmann (2012). Human Psychometric and Taste Receptor Responses to Steviol Glycosides. Journal of Agricultural and Food Chemistry 2012 60 (27), 6782-6793) has shown bitterness of steviol glycosides to be most obvious at around 1000 μM which for Rebaudioside A would be 0.97 g/L, equivalent to 24% sucrose. However, solutions of 100 μM are also bitter which for Rebaudioside A would be 0.097 g/L, equivalent to 2.4% sucrose. Therefore, it was decided to test solutions at equivalent sweetness levels above 2% sucrose to ensure that both sweetness and bitterness could be evaluated in levels applicable to final application.

The mark [4] stands for this setting: modified high intensity sweetener compared to un-modified.

Marks after values point to notes of the source that are not given here.

Turning to `C[C@H](CC[C@@H](O[C@@H]1O[C@H](CO[C@@H]2O[C@H](CO)[C@@H](O)[C@H](O)[C@H]2O)[C@@H](O)[C@H](O)[C@H]1O[C@@H]1O[C@H](CO)[C@@H](O)[C@H](O)[C@H]1O)C(C)(C)O)[C@H]1CC[C@@]2(C)[C@@H]3CC=C4[C@@H](CC[C@H](O[C@@H]5O[C@H](CO[C@@H]6O[C@H](CO)[C@@H](O)[C@H](O)[C@H]6O)[C@@H](O)[C@H](O)[C@H]5O)C4(C)C)[C@]3(C)[C@H](O)C[C@]12C` [Mogroside, Mogroside V], in the experiment with trained sensory panel (CGTase modified vs unmodified), the “effect of enzymatic modification on liquorice flavour” value is reported as “significantly reduced” and the “effect of enzyme modification on sweetness” value was “reduced the sweetness”. Moreover, in the experiment with trained sensory panel, the “Sweet Taste Intensity” value came to 47.3, the “ES (equivalent sucrose concentration)” value was determined as 4.5%, the “Bitter Taste” value is on record as 7.3^c and the “Cardboard/Stale Flavour” value was 0.7^c. In addition, in the experiment with trained sensory panel, the Cooked sugar flavour is listed as 3.2^ab, the “Cooling Sensation” value is reported as 2.6^ab, the “Crusty Bread Flavour” value is 3.3^a and the “Liquorice Flavour” value is on record as 21.4^a. Besides, in the experiment on trained sensory panel, the Metallic is 3.4^b, the “Overall Strength of Off Taste/Flavour” value is listed as 25.6^cd, the “Perfume Flavour” value is recorded as 0.3^a and the “Salty Taste” value is reported as 0.8^a. Besides, in the experiment with trained sensory panel, the “Sour Taste” value is listed as 1.2^b, the “Sweet Taste” value is reported as 47.3^b, the “Bitter Aftertaste” value is recorded as 4.6^c and the “Cooling Aftereffect” value is given as 1.6^ab. Besides, in the experiment on trained sensory panel, the “Liquorice Aftereffect” value is listed as 10.8^bc, the “Sweet Aftertaste” value is reported as 28.2^b, the Potency worked out at 188 and the “liquorice flavour compared between sweeteners” value was “equivalent in liquorice flavour”. Besides, in the experiment on trained sensory panel (setting [4]), the “Bitter taste: reduction %” value came to 0%, the “Bitter taste: reduction ratio” value is reported as 0, the “Liquorice taste: reduction %” value is recorded as 41% and the “Liquorice taste: reduction ratio” value is reported as 1.7. For the same molecule, in the experiment on trained sensory panel (setting [4]), the “Metallic: reduction %” value amounted to 67% and the “Metallic: reduction ratio” value is recorded as 3. Moreover, the “sweetness in initial tasting” value in experiment [1] is reported as “considered sweeter than the Steviol glycosides”. Moreover, the “sweet potency relative to sucrose” value in experiment [2] is recorded as roughly 400 ×.
Turning to `C=C1C[C@@]23CC[C@H]4[C@@](C)(CCC[C@@]4(C)C(=O)O[C@@H]4O[C@H](CO)[C@@H](O)[C@H](O)[C@H]4O)[C@@H]2CC[C@]1(O[C@@H]1O[C@H](CO)[C@@H](O)[C@H](O[C@@H]2O[C@H](CO)[C@@H](O)[C@H](O)[C@H]2O)[C@H]1O[C@@H]1O[C@H](CO)[C@@H](O)[C@H](O)[C@H]1O)C3` [Reb, Rebaudioside A], the “effect of enzyme modification on sweetness” value with trained sensory panel (CGTase modified vs unmodified) is recorded as “reduced the sweetness”. Moreover, the “sweetness compared between sweeteners” value with trained sensory panel (Rebaudioside A 0.24 g/L vs Steviol glycosides 0.32 g/L and Mogroside V 0.24 g/L) is recorded as “significantly more sweet”. In addition, in the experiment with trained sensory panel, the “Sweet Taste Intensity” value stood at 60.3, the “ES (equivalent sucrose concentration)” value was found to be 5.3%, the “Bitter Taste” value is 10.8^bc and the “Cardboard/Stale Flavour” value is given as 0.6^c. For the same molecule, in the experiment on trained sensory panel, the Cooked sugar flavour is given as 3.9^a, the “Cooling Sensation” value is 4.7^a, the “Crusty Bread Flavour” value is 0.5^bc and the “Liquorice Flavour” value is 24.2^a. Also, in the experiment on trained sensory panel, the Metallic is 2.7^bc, the “Overall Strength of Off Taste/Flavour” value is 31.9^bc, the “Perfume Flavour” value is on record as 0.4^a and the “Salty Taste” value is recorded as 1.6^a. Also, in the experiment with trained sensory panel, the “Sour Taste” value was 0.9^b, the “Sweet Taste” value is reported as 60.3^a, the “Bitter Aftertaste” value is reported as 6.5^bc and the “Cooling Aftereffect” value was 2.1^a. Also, in the experiment on trained sensory panel, the “Liquorice Aftereffect” value is on record as 11.6^bc, the “Sweet Aftertaste” value is 34.8^a, the Potency turned out to be 223 and the “liquorice flavour compared between sweeteners” value was “equivalent in liquorice flavour”. In experiment [3] (100 μM = 0.097 g/L), the equivalent sucrose was 2.4 % sucrose. Further, the equivalent sucrose in experiment [3] (1000 μM = 0.97 g/L) is reported as 24 % sucrose. Also, in experiment [1], the “sweetness in initial tasting” value was “considered sweeter than the Steviol glycosides”. The “sweet potency relative to sucrose” value in experiment [2] is given as roughly 250 ×.
On to `OC[C@H]1O[C@@](CO)(O[C@H]2O[C@H](CO)[C@@H](O)[C@H](O)[C@H]2O)[C@@H](O)[C@@H]1O` [Sucrose], for which the “Mean Rating (0-100)” value in the experiment on trained sensory panel (sucrose standard 1, 2.0 % w/v) came to 10; in the experiment on trained sensory panel (sucrose standard 2, 4.0 % w/v), 35; in the experiment on trained sensory panel (sucrose standard 3, 6.0 % w/v), 75; in the experiment on trained sensory panel (sucrose standard 4, 8.0 % w/v), 100.
